Measurements published in US20240360151A1 (SANOFI, priority 2023, published 2024).

Columns and labels:
[1] = system: NF-kB pathway (TNF-α secretion by THP-1 cells); assay: TNF-α secretion assay in LPS-stimulated THP-1 cells, Lumit immunoassay; format: cell-based, human; conditions: Homo sapiens, THP-1, 3 h, monocytic THP-1 cells, LPS 10 ng/mL, relative IC50, 10 concentrations, geometric mean
Method: Monocytic THP-1 cells were maintained in RPMI 1640 media (Gibco 21875)+10% FBS, (Gibco 10500)+1% penicillin/streptomycin (Gibco 15140-122). Cells were then plated at 40,000 cells per well in 384-well cell culture plates (Corning 3542) and maintained with RPMI1640 (Gibco 11835)+5% FBS, (Gibco 10500). Experimental compounds were prepared and added as described above. TNF-α secretion was triggered by the addition of 10 ng/mL LPS (invivoGen, tlrl-3pelps) and cells were incubated for 3 hours. TNF-α levels were monitored directly in the cells plate using an Lumit assay (Lumit TNFa-Human Immunoassay—Promega W6051) according to manufacturers' instructions.
Data were expressed as percentage of inhibition (I %) as compared to a maximum signal control containing no small molecule (I %=0%) according to the formula: 1%=(1−((Sample−Min))/((Max−Min)))×100, where: • Sample: Signal obtained in the presence of each compound tested, • Max: Maximum signal in the absence of compound added, • Min: Minimum or background signal obtained in the absence of activation signal.
Relative IC50 (IC50 rel) were obtained from a dose response curve with 10 concentrations. Final IC50 rels are expressed as the geometric mean.
Relative IC50 values were estimated with Biost@t-SPEED v2.4 internal software based on SAS system using the 4-parameter logistic model according to Ratkovsky and Reedy (D. A. Ratkovsky, T. J. Reedy, Choosing near-linear parameters in the four parameters logistic model radioligands and related assays. Biometrics, 42 (1986), 575-582): Y=A+C/((1+exp(−B*(log(X)−M)))), where: • A: Lower asymptote (BOTTOM), • A+C: Upper asymptote (TOP), • M: the logarithm of the concentration estimated at the inflexion point (the logarithm of the relative IC50), • B: Slope at the inflexion point of the curve.

[2] = target: T1, NLRP3 inflammasome (Homo sapiens, UniProt Q96P20); assay: IL-1β secretion assay (NLRP3 IC50) in LPS-primed, nigericin-activated THP-1 cells, HTRF; format: cell-based; conditions: monocytic THP-1 cells; LPS 10 ng/mL 3 h priming, then compound + nigericin 10 μM 2 h; relative IC50, 10 concentrations, geometric mean
T1 construct: endogenous in cells; host or cells: THP-1 monocytic cells
How it was run: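 THP-1 cells primed with LPS 10 ng/mL for 3 h at 37° C., then compound (10-point 1:3 dilution, 0.1% DMSO) added with 10 μM nigericin for 2 h. Supernatant IL-1β measured by HTRF; relative IC50 from a 4-parameter logistic fit, reported as geometric mean.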

T1 sequence (Q96P20 whole entry): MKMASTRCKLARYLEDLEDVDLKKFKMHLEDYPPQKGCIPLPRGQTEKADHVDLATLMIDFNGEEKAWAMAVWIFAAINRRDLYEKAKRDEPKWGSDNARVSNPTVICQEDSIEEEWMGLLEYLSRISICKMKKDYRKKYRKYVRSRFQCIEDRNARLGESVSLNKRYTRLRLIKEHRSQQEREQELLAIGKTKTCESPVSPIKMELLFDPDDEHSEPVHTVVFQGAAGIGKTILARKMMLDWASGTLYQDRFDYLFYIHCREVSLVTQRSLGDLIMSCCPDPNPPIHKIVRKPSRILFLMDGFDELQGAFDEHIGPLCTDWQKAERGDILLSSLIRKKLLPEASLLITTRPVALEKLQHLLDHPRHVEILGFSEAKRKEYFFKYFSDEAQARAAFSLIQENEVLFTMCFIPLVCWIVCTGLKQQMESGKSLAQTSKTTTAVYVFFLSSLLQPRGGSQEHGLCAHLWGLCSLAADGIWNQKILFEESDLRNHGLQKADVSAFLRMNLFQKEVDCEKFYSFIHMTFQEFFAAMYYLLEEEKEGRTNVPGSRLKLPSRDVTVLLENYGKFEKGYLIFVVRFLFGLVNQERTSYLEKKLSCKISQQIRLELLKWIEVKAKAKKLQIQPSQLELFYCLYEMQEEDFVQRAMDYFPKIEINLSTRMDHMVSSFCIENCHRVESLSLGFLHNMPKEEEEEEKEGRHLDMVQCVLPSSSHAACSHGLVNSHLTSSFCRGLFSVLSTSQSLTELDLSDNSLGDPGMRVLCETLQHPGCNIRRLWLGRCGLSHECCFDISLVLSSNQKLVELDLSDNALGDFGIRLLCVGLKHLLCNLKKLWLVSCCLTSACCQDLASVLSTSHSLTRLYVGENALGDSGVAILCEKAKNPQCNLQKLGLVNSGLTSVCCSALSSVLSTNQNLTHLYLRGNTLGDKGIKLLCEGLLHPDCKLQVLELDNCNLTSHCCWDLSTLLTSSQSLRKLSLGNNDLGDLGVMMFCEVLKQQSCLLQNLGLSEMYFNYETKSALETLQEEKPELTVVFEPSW

| IC50 [1] [nM] | IC50 [2] [nM] | Compound |
| --- | --- | --- |
| > 10000 | 55 | CCc1cccc(O)c1-c1cc(C(F)F)c(N2CCO[C@@H]3CCN(C)C[C@@H]32)nn1 [Example 425, 2-[6-[(4aS,8aR)-6-methyl-3,4a,5,7,8,8a-hexahydro-2H-pyrido[4,3-b][1,4]oxazin-4-yl]-5-(difluoromethyl)pyridazin-3-yl]-3-ethyl-phenol] |
| > 10000 | 12 | Oc1cc(C(F)(F)F)ccc1-c1nnc(N2CCO[C@@H]3CCNC[C@@H]32)cc1C(F)F [Example 382, 2-[6-[(4aS,8aR)-2,3,4a,5,6,7,8,8a-octahydropyrido[4,3-b][1,4]oxazin-4-yl]-4-(difluoromethyl)pyridazin-3-yl]-5-(trifluoromethyl)phenol] |
| > 10000 | 12 | CCc1cc(C)cc(O)c1-c1ccc(N2CCO[C@H](CO)C2)nn1 [Example 246, 3-ethyl-2-[6-[(2S)-2-(hydroxymethyl)morpholin-4-yl]pyridazin-3-yl]-5-methylphenol] |
| > 10000 | 238 | CN(C)C[C@H]1CN(c2ccc(-c3c(O)cc(Cl)cc3Cl)nn2)CCO1 [Example 39, 3,5-dichloro-2-[6-[(2S)-2-[(dimethylamino)methyl]morpholin-4-yl]pyridazin-3-yl]phenol] |
| > 10000 | 30 | Cc1cc(C(F)(F)F)cc(O)c1-c1ccc(N2CCO[C@H](C)C2)nn1 [Example 258, 3-methyl-2-[6-[(2R)-2-methylmorpholin-4-yl]pyridazin-3-yl]-5-(trifluoromethyl)phenol] |
| > 10000 | 360 | CNC(=O)C[C@@H]1CN(c2ccc(-c3c(C)cc(C)cc3O)nn2)CCO1 (single isomer, unassigned) [Example 142] |
| > 10000 | 65 | Cc1cc(Cl)cc(O)c1-c1ccc(N2CCO[C@@H](CNC(=O)C(C)C)C2)nn1 [Example 285, N-[[(2S)-4-[6-(4-chloro-2-hydroxy-6-methylphenyl)pyridazin-3-yl]morpholin-2-yl]methyl]-2-methylpropanamide] |
| > 10000 | 7 | Cc1cc(Cl)cc(O)c1-c1cc(C#N)c(N2CCO[C@H](CO)C2)nn1 [Example 163, 6-(4-chloro-2-hydroxy-6-methyl-phenyl)-3-[(2S)-2-(hydroxymethyl)morpholin-4-yl]pyridazine-4-carbonitrile] |
| > 10000 | 25 | Cc1cc(N2CC[C@@H]3CCN(C)C[C@@H]32)nnc1-c1ccc(C(F)(F)F)cc1O (single isomer, unassigned) [Example 366] |
| 9800 | 164 | Cc1c(-c2ccc(Cl)cc2O)nnc(N2CCO[C@H](CO)C2)c1C [Example 81, 5-chloro-2-[6-[(2S)-2-(hydroxymethyl)morpholin-4-yl]-4,5-dimethyl-pyridazin-3-yl]phenol] |
| > 10000 | 2 | CCN1CC[C@@H]2OCCN(c3ccc(-c4c(C)cc(C)cc4O)nn3)[C@@H]2C1 (racemic) [Example 209, 2-[6-[rac-(4aR,8aS)-6-ethyl-3,4a,5,7,8,8a-hexahydro-2H-pyrido[4,3-b][1,4]oxazin-4-yl]pyridazin-3-yl]-3,5-dimethyl-phenol] |
| > 10000 | 309 | CC(=O)NC[C@H]1CCCN(c2ccc(-c3c(C)cc(C(F)(F)F)cc3O)nn2)C1 [Example 167, N-[[(3R)-1-[6-[2-hydroxy-6-methyl-4-(trifluoromethyl)phenyl]pyridazin-3-yl]-3-piperidyl]methyl]acetamide] |
| > 10000 | 180 | CC(=O)N1CC[C@@H]2OCCN(c3ccc(-c4c(C)cc(C(F)(F)F)cc4O)nn3)[C@@H]2C1 (single isomer, unassigned) [Example 263] |
| > 10000 | 344 | Cc1cc(C)c(-c2ccc(N3CCO[C@@H]4COCC[C@H]43)nn2)c(O)c1 (racemic) [Example 154, 3,5-dimethyl-2-[6-[rac-(4aR,8aS)-3,4a,5,7,8,8a-hexahydro-2H-pyrano[3,4-b][1,4]oxazin-1-yl]pyridazin-3-yl]phenol] |
| > 10000 | 407 | Cc1cc(C)c(-c2ccc(N3CCC(O)CC3)nn2)c(O)c1 [Example 1, 1-[6-(2-hydroxy-4,6-dimethyl-phenyl)pyridazin-3-yl]piperidin-4-ol] |
| > 10000 | 200 | O=C1NCCCN1c1ccc(-c2c(O)cc(Cl)cc2Cl)nn1 [Example 239, 1-[6-(2,4-dichloro-6-hydroxy-phenyl)pyridazin-3-yl]hexahydropyrimidin-2-one] |
| > 10000 | 1 | Cc1cc(C)c(-c2cc(C(F)F)c(N3CCO[C@@H]4CCN(C)C[C@@H]43)nn2)c(O)c1 [Example 291, 2-[6-[(4aS,8aR)-6-methyl-3,4a,5,7,8,8a-hexahydro-2H-pyrido[4,3-b][1,4]oxazin-4-yl]-5-(difluoromethyl)pyridazin-3-yl]-3,5-dimethyl-phenol] |
| 9500 | 285 | Cc1cc(C)c(-c2ccc(N3CC[C@H](CO)C3)nn2)c(O)c1 [Example 79, 2-[6-[(3S)-3-(hydroxymethyl)pyrrolidin-1-yl]pyridazin-3-yl]-3,5-dimethyl-phenol] |
| > 10000 | 67 | Cc1cc(C(F)(F)F)cc(O)c1-c1ccc(N2CCO[C@@H](C)C2)nn1 [Example 259, 3-methyl-2-[6-[(2S)-2-methylmorpholin-4-yl]pyridazin-3-yl]-5-(trifluoromethyl)phenol] |
| > 10000 | 127 | Cc1cc(C)c(-c2ccc(N3CCCc4ccc(O)cc43)nn2)c(O)c1 [Example 217, 1-[6-(2-hydroxy-4,6-dimethyl-phenyl)pyridazin-3-yl]-3,4-dihydro-2H-quinolin-7-ol] |
| > 10000 | 248 | CC(=O)NC[C@H]1CCCN(c2ccc(-c3c(O)cc(Cl)cc3Cl)nn2)C1 [Example 57, N-[[(3R)-1-[6-(2,4-dichloro-6-hydroxy-phenyl)pyridazin-3-yl]-3-piperidyl]methyl]acetamide] |
| > 10000 | 10 | Cc1cc(C)c(-c2ccc(N3CCOc4ccc(O)cc43)nn2)c(O)c1 [Example 162, 4-[6-(2-hydroxy-4,6-dimethyl-phenyl)pyridazin-3-yl]-2,3-dihydro-1,4-benzoxazin-6-ol] |
| > 10000 | 411 | Cc1cc(C)c(-c2ccc(N3C[C@H](CO)CC3=O)nn2)c(O)c1 (single isomer, unassigned) [Example 137] |
| > 10000 | 665 | CC(=O)NC[C@@H]1COCCN1c1ccc(-c2c(C)cc(C)cc2O)nn1 [Example 129, N-[[(3R)-4-[6-(2-hydroxy-4,6-dimethyl-phenyl)pyridazin-3-yl]morpholin-3-yl]methyl]acetamide] |
| > 10000 | 80 | Cc1ccc(-c2nnc(N3CCO[C@@H]4CCNC[C@@H]43)cc2C(F)F)c(O)c1 [Example 322, 2-[6-[(4aS,8aR)-2,3,4a,5,6,7,8,8a-octahydropyrido[4,3-b][1,4]oxazin-4-yl]-4-(difluoromethyl)pyridazin-3-yl]-5-methyl-phenol] |
| > 10000 | 20 | Cc1cc(C)c(-c2ccc(N3CCO[C@H](CO)C3)nn2)c(O)c1 [Example 8, 2-[6-[(2S)-2-(hydroxymethyl)morpholin-4-yl]pyridazin-3-yl]-3,5-dimethyl-phenol] |
| > 10000 | 1 | Cc1cc(Cl)cc(O)c1-c1ccc(N2CCO[C@H]3CCN(C)C[C@H]32)nn1 (racemic) [Example 224, 5-chloro-3-methyl-2-[6-[rac-(4aR,8aS)-6-methyl-3,4a,5,7,8,8a-hexahydro-2H-pyrido[4,3-b][1,4]oxazin-4-yl]pyridazin-3-yl]phenol] |
| > 10000 | 277 | Cc1cc(Cl)cc(O)c1-c1ccc(N2CCO[C@H](CNC(=O)C(C)C)C2)nn1 [Example 279, N-[[(2R)-4-[6-(4-chloro-2-hydroxy-6-methylphenyl)pyridazin-3-yl]morpholin-2-yl]methyl]-2-methylpropanamide] |

| Compound | IC50 [1] [nM] | IC50 [2] [nM] |
| --- | --- | --- |
| Cc1cccc(O)c1-c1ccc(N2CC[C@@H]3CCN(C)C[C@@H]32)nn1 (racemic) [Example 385, 3-methyl-2-[6-[rac-(3aS,7aR)-6-methyl-3,3a,4,5,7,7a-hexahydro-2H-pyrrolo[2,3-c]pyridin-1-yl]pyridazin-3-yl]phenol] | > 10000 | 2 |
